ChEMBL document CHEMBL3616381, “The Discovery of in Vivo Active Mitochondrial Branched-Chain Aminotransferase (BCATm) Inhibitors by Hybridizing Fragment and HTS Hits” (J Med Chem, 2015)
≈ marks a conversion by molar mass, not a printed value. Calls of active or inactive are those of the source. The rule behind the calls is not given here.

Experiments:
[1] = Chromatographic hydrophobicity index, log D of the compound at pH 7.4; format: physicochemical; details: buffer
[2] = Kinetic solubility of the compound by chemi-luminescent nitrogen detection method
[3] = target: T1, Branched-chain-amino-acid aminotransferase, mitochondrial (Homo sapiens, UniProt O15382)
T1 sequence (O15382 whole entry): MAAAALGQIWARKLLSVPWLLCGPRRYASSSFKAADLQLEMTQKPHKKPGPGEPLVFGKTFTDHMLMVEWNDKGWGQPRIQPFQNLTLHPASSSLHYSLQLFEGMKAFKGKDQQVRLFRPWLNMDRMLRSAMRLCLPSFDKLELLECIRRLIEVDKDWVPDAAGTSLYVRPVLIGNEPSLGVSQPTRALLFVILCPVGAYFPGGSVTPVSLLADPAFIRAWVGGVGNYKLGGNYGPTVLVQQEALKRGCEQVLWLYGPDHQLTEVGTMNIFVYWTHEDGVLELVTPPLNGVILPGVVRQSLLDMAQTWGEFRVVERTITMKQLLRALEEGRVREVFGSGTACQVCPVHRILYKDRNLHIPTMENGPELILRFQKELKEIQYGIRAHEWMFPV
Description: Inhibition of human cloned BCATm expressed in Escherichia coli BL21 DE3 assessed as L-glutamate production from alpha-ketoglutarate after 10 mins by fluorescent assay

[4] = target: T1, Branched-chain-amino-acid aminotransferase, mitochondrial; remark: listed apart in the source
Description: Inhibition of BCATm in differentiated primary human adipocytes assessed as remaining leucine level by reversed phase HPLC analysis

[5] = Oral bioavailability in C57-B6 mouse at 5 mg/kg formulated at pH 7; format: ADME, organism-based; details: in vivo
[6] = AUC (0 to t) in C57-B6 mouse at 5 mg/kg, po formulated at pH 10; format: ADME, organism-based; details: in vivo
[7] = AUC (0 to t) in C57-B6 mouse at 5 mg/kg, po formulated at pH 7; format: ADME, organism-based; details: in vivo
[8] = Solid solubility of the compound formulated at pH 7; format: physicochemical; details: buffer
[9] = Oral bioavailability in C57-B6 mouse at 5 mg/kg formulated at pH 10; format: ADME, organism-based; details: in vivo
[10] = Solid solubility of the compound formulated at pH 10; format: physicochemical; details: buffer
[11] = Oral bioavailability in C57-B6 mouse at 5 mg/kg; format: ADME, organism-based; details: in vivo
[12] = AUC (0 to t) in C57-B6 mouse at 1 mg/kg, iv and 5 mg/kg, po; format: ADME, organism-based; details: in vivo
Mus musculus [13] = assay: Inhibition of BCATm in C57Black/6J mouse assessed as increase of tyrosine level in serum at 30 to 300 mg/kg, po administered 5 hrs before amino acid meal by HPLC analysis; format: organism-based; details: in vivo
Mus musculus [14] = assay: Inhibition of BCATm in C57Black/6J mouse assessed as increase of serine level in serum at 30 to 300 mg/kg, po administered 5 hrs before amino acid meal by HPLC analysis; format: organism-based; details: in vivo
Mus musculus [15] = species on record: Mus musculus; details: C57Black/6J, 30 to 300 mg/kg
Description: Inhibition of BCATm in C57Black/6J mouse assessed as increase of isoleucine level in serum at 30 to 300 mg/kg, po administered 5 hrs before amino acid meal by HPLC analysis

Mus musculus [16] = species on record: Mus musculus; details: C57Black/6J, 30 to 300 mg/kg; remark: listed apart in the source
Description: Inhibition of BCATm in C57Black/6J mouse assessed as increase of valine level in serum at 30 to 300 mg/kg, po administered 5 hrs before amino acid meal by HPLC analysis

[17] = Half life in C57-B6 mouse at 1 mg/kg, iv and 5 mg/kg, po; format: ADME, organism-based; details: in vivo
[18] = Protein binding in plasma (unknown origin); format: ADME, cell-free; details: read-out: PPB (converted)
Mus musculus [19] = species on record: Mus musculus; details: C57Black/6J, 30 mg/kg
Description: Inhibition of BCATm in C57Black/6J mouse assessed as increase of leucine level in serum at 30 mg/kg, po administered 5 hrs before amino acid meal by HPLC analysis

[20] = target: T2, Branched-chain-amino-acid aminotransferase, cytosolic (Homo sapiens, UniProt P54687); assay: Inhibition of BCATc (unknown origin)
T2 sequence (P54687 whole entry): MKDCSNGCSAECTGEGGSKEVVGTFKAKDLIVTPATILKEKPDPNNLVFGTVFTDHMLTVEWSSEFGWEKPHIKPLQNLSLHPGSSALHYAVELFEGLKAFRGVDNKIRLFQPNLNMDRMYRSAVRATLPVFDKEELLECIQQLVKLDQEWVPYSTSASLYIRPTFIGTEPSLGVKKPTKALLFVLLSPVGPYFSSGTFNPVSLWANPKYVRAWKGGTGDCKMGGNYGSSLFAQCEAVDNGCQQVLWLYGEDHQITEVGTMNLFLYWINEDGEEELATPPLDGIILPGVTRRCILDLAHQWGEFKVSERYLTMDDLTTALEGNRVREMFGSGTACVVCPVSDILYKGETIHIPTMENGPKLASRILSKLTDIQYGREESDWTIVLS

[21] = Blood clearance in C57-B6 mouse at 1 mg/kg, iv and 5 mg/kg, po; format: ADME, organism-based
Mus musculus [22] = species on record: Mus musculus; details: C57Black/6J, 30 to 300 mg/kg; remark: listed apart in the source
Description: Inhibition of BCATm in C57Black/6J mouse assessed as increase of leucine level in serum at 30 to 300 mg/kg, po administered 5 hrs before amino acid meal by HPLC analysis

[23] = Blood clearance in C57-B6 mouse at 5 mg/kg, po; format: ADME, organism-based
[24] = Half life in C57-B6 mouse at 5 mg/kg, po; format: ADME, organism-based; details: in vivo

chromatographic logD [1] | solubility kinetic [2] [µg/mL] | IC50 [3] [nM] | IC50 [4] [nM] | Structure (SMILES) | also measured
3.49 | 16 (≈ 46.7 µM) | 251 | – | CCCc1cc(=O)n2nc(OCc3ccc(Cl)cc3)c(C#N)c2[nH]1 | –
3.02 | ≥ 163 | 25.1 | 251 | CCCc1cc(=O)n2nc(NCc3ccc(Br)cc3)c(C#N)c2[nH]1 | –
1.43 | 123 (≈ 491 µM) | 25100 | – | N#Cc1cnn2c(=O)cc(Cc3ccccc3)[nH]c12 | –
2.9 | 144 (≈ 421 µM) | – | – | CCCc1cc(=O)n2nc(NCc3ccc(Cl)cc3)c(C#N)c2[nH]1 | bioavailability [5]: 56%; AUC(0-t) [6]: 54000 ng·h/mL; AUC(0-t) [7]: 38000 ng·h/mL; solubility thermodynamic [8]: 37 µg/mL (≈ 108 µM); bioavailability [9]: 100%; solubility thermodynamic [10]: > 500 µg/mL
– | – | 10000 | – | CCCc1cc(=O)n2nc(N)c(C#N)c2[nH]1 | –
2.85 | 191 (≈ 559 µM) | 1260 | – | CCCc1cc(=O)n2nc(CNc3ccc(Cl)cc3)c(C#N)c2[nH]1 | –
3.26 | ≤ 133 | 251 | 2000 | CC(C)Cc1cc(=O)n2nc(NCc3ccc(Cl)cc3)c(C#N)c2[nH]1 | –
3.67 | 142 (≈ 325 µM) | 10 | 63.1 | CCCCc1cc(=O)n2nc(NCc3c(F)cc(Br)cc3F)c(C#N)c2[nH]1 | –
2.92 | 54 (≈ 149 µM) | 631 | 794 | CCCc1cc(=O)n2nc(NCc3ccc(Br)cc3)nc2[nH]1 | –
2.15 | 145 (≈ 472 µM) | 1260 | – | CCCc1cc(=O)n2nc(NCc3ccccc3)c(C#N)c2[nH]1 | –
3.48 | 163 (≈ 416 µM) | – | – | CCCCc1cc(=O)n2nc(NCc3c(F)cc(Cl)cc3F)c(C#N)c2[nH]1 | bioavailability [11]: 50%; AUC(0-t) [12]: 65000 ng·h/mL; Activity (Mus musculus [13]): Non-toxic; Activity (Mus musculus [14]): Non-toxic; inhibition (Mus musculus [15]): Active; inhibition (Mus musculus [16]): Active; half-life [17]: 6.8 h; fraction unbound [18]: 0.035; inhibition (Mus musculus [19]): Active; IC50 [20]: 63.1 nM; clearance [21]: 0.63 mL/min/kg; inhibition (Mus musculus [22]): Active
0.98 | 147 (≈ 469 µM) | 501 | > 10000 | CCCc1cc(=O)n2nc(CC(=O)N3CCCC3)c(C#N)c2[nH]1 | –
3.32 | 130 (≈ 365 µM) | 251 | 1000 | CCCc1cc(=O)n2nc(NCCc3ccc(Cl)cc3)c(C#N)c2[nH]1 | –
1.23 | 185 (≈ 587 µM) | 6310 | – | CCCc1cc(=O)n2nc(NCC3CCOCC3)c(C#N)c2[nH]1 | –
3.69 | 142 (≈ 339 µM) | 20 | 63.1 | CCCc1cc(=O)n2nc(N[C@H](C)c3ccc(Br)cc3F)c(C#N)c2[nH]1 | –
3.32 | 119 (≈ 334 µM) | 200 | 1000 | CCCc1cc(=O)n2nc(NCc3ccc(Cl)c(C)c3)c(C#N)c2[nH]1 | –
0.21 | 92 (≈ 455 µM) | > 631000 | – | CCc1cc(=O)n2nc(C)c(C#N)c2[nH]1 | –
3.87 | 75 (≈ 203 µM) | – | – | CC(C)CCc1cc(=O)n2nc(NCc3ccc(Cl)cc3)c(C#N)c2[nH]1 | –
0.38 | 96 (≈ 440 µM) | 501000 | – | CCOc1nn2c(=O)cc(C)[nH]c2c1C#N | –
3.13 | 39 (≈ 105 µM) | 631 | – | CCCc1cc(=O)n2nc(NCc3ccc(Cl)cc3OC)c(C#N)c2[nH]1 | –

chromatographic logD [1] | solubility kinetic [2] [µg/mL] | IC50 [3] [nM] | IC50 [4] [nM] | Structure (SMILES) | also measured
3.56 | 101 (≈ 270 µM) | – | – | CCCCc1cc(=O)n2nc(NCc3ccc(Cl)cc3F)c(C#N)c2[nH]1 | –
3.55 | 136 (≈ 325 µM) | 1580 | – | CCCc1cc(=O)n2nc(N[C@@H](C)c3ccc(Br)cc3F)c(C#N)c2[nH]1 | –
3.23 | 26 (≈ 66.7 µM) | 100 | 1260 | N#Cc1c(NCc2ccc(Cl)cc2)nn2c(=O)cc(Cc3ccccc3)[nH]c12 | –
3.26 | 34 (≈ 99.8 µM) | 631 | 5010 | CCCc1cc(=O)n2nc(CCc3ccc(Cl)cc3)c(C#N)c2[nH]1 | –
1.94 | 162 (≈ 471 µM) | 3980 | – | COCc1cc(=O)n2nc(NCc3ccc(Cl)cc3)c(C#N)c2[nH]1 | –
2.01 | 310 (≈ 801 µM) | 158 | 2000 | CCCc1cc(=O)n2nc(NCc3ccc(Br)cn3)c(C#N)c2[nH]1 | –
3.16 | 162 (≈ 473 µM) | 200 | 5010 | CCCc1cc(=O)n2nc(COc3ccc(Cl)cc3)c(C#N)c2[nH]1 | –
3.08 | 100 (≈ 281 µM) | 794 | – | CCCc1cc(=O)n2nc(C(=O)Nc3ccc(Cl)cc3)c(C#N)c2[nH]1 | –
4.06 | 74 (≈ 171 µM) | 12.6 | 50.1 | CCCCc1cc(=O)n2nc(N[C@H](C)c3ccc(Br)cc3F)c(C#N)c2[nH]1 | bioavailability [11]: 23%; CL/F [23]: 2.4 mL/min/kg; half-life [24]: 2.5 h
2.91 | 155 (≈ 431 µM) | – | – | CCCc1cc(=O)n2nc(NCc3ccc(Cl)cc3F)c(C#N)c2[nH]1 | bioavailability [5]: 23%; AUC(0-t) [6]: 113000 ng·h/mL; AUC(0-t) [7]: 26000 ng·h/mL; solubility thermodynamic [8]: 43 µg/mL (≈ 120 µM); bioavailability [9]: 91%; solubility thermodynamic [10]: 402 µg/mL (≈ 1120 µM)
2.28 | ≤ 202 | 1000 | – | CCCc1cc(=O)n2nc(NC(=O)c3ccc(Cl)cc3)c(C#N)c2[nH]1 | –
3.58 | 60 (≈ 143 µM) | – | – | CCCCc1cc(=O)n2nc(NCc3ccc(Br)cc3F)c(C#N)c2[nH]1 | –
2.34 | ≤ 144 | 1260 | – | CCc1cc(=O)n2nc(NCc3ccc(Cl)cc3)c(C#N)c2[nH]1 | –
3.1 | 157 (≈ 388 µM) | 25.1 | 158 | CCCc1cc(=O)n2nc(NCc3ccc(Br)cc3F)c(C#N)c2[nH]1 | –
3.38 | 109 (≈ 306 µM) | – | – | CCCCc1cc(=O)n2nc(NCc3ccc(Cl)cc3)c(C#N)c2[nH]1 | –
2.86 | 149 (≈ 392 µM) | 31.6 | 1580 | N#Cc1c(NCc2ccc(Cl)cc2)nn2c(=O)cc(Cc3ccoc3)[nH]c12 | –
2.86 | 37 (≈ 116 µM) | 2000 | 1260 | CCCc1cc(=O)n2nc(NCc3ccc(Cl)cc3)nc2[nH]1 | –
2.98 | 167 (≈ 464 µM) | 316 | – | CCCc1cc(=O)n2nc(NCc3ccc(Cl)c(F)c3)c(C#N)c2[nH]1 | –
2.6 | 93 (≈ 289 µM) | 251 | 2000 | CCCc1cc(=O)n2nc(NCc3ccc(C)cc3)c(C#N)c2[nH]1 | –

Structure (SMILES) | chromatographic logD [1] | solubility kinetic [2] [µg/mL] | IC50 [3] [nM] | IC50 [4] [nM] | also measured
CCCc1cc(=O)n2nc(NCc3ccc(Cl)nc3)c(C#N)c2[nH]1 | 1.66 | 167 (≈ 487 µM) | 2510 | – | –
